Data on one compound can be found in ChEMBL document CHEMBL4321836, “Discovery of BAY-298 and BAY-899: Tetrahydro-1,6-naphthyridine-Based, Potent, and Selective Antagonists of the Luteinizing Hormone Receptor Which Reduce Sex Hormone Levels in Vivo” (J Med Chem, 2019).

In series [1] the target is T1, Lutropin-choriogonadotropic hormone receptor (Homo sapiens, UniProt P22888). Put plainly: Negative allosteric modulation of human luteinizing hormone receptor assessed as reduction in Org 43553-induced agonist activity preincubated for 20 mins followed by 100 times EC80 of agonist addition and measured after 60 mins by cell based TR-FRET assay relative to control.
T1 sequence (P22888 whole entry): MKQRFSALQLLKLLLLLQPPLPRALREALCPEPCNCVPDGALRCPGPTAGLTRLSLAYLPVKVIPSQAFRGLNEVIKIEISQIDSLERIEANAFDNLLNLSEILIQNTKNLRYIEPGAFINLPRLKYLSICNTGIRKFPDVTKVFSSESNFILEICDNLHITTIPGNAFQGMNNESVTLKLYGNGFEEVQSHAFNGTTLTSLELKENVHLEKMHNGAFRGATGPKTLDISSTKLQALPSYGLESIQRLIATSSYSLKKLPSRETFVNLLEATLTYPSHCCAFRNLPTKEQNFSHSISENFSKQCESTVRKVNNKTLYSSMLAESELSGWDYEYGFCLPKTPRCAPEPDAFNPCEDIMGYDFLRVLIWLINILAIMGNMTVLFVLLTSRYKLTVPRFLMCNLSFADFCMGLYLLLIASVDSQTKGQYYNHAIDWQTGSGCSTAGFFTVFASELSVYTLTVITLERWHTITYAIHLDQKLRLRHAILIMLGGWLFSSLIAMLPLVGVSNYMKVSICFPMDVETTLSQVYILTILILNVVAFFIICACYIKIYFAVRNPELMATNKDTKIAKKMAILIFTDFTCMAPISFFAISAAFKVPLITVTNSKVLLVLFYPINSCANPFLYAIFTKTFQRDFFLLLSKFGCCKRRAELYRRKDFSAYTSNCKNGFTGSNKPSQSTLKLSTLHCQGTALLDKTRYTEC

For series [2], the target named is T1, Lutropin-choriogonadotropic hormone receptor. Put plainly: Negative allosteric modulation of human luteinizing hormone receptor assessed as reduction in Org 43553-induced agonist activity preincubated for 20 mins followed by 10 times EC80 of agonist addition and measured after 60 mins by cell based TR-FRET assay relative to control.
The target is the same in series [3]. Briefly: Negative allosteric modulation of human luteinizing hormone receptor assessed as Emax for Org 43553-induced agonist activity at 0.84 nM to 17 uM preincubated for 20 mins followed by 4 times EC80 of agonist addition and measured after 60 mins by cell based TR-FRET assay relative to control.
Series [4] deals with Rattus norvegicus. Briefly: Downregulation of 0.1 ug human luteinizing hormone-induced testosterone expression in plasma of cetrorelix-treated male rat at 14 mg/kg, iv after 2 hrs by radioimmunoassay method (reference value: 33.4 nM). In kind it is functional.
Series [5] addresses T1, Lutropin-choriogonadotropic hormone receptor. Put plainly: Negative allosteric modulation of human luteinizing hormone receptor assessed as reduction in Org 43553-induced agonist activity preincubated for 20 mins followed by 4 times EC80 of agonist addition and measured after 60 mins by cell based TR-FRET assay relative to control.
Series [6] relates to Rattus norvegicus. Briefly: Downregulation of human luteinizing hormone-induced testosterone expression in plasma of cetrorelix-treated iv dosed male rat at after 2 hrs by radioimmunoassay method. In kind it is functional, organism-based.
Series [7] in a line: Fraction unbound in female rat at 4.5 to 72 mg/kg, po administered once daily for 8 days. The note with it: in vivo. In kind it is ADME, organism-based.
The nature of series [8]: Plasma concentration in female rat at 4.5 to 72 mg/kg, po administered once daily for 8 days and measured on day 8. In kind it is ADME, organism-based.
In series [9] the test system is Rattus norvegicus. Briefly: Downregulation of 0.3 ug human luteinizing hormone-induced testosterone expression in plasma of cetrorelix-treated male rat at 14 mg/kg, iv after 2 hrs by radioimmunoassay method (reference value: 33.4 nM). In kind it is functional.
Series [10] relates to Rattus norvegicus. Briefly: Effect on folliculo-genesis in 4 day cycle of po dosed normally cycling female rat assessed as induction of cycle arrest in diestrus stage by observing vaginal smears administered once daily for 8 days. In kind it is functional, organism-based.
The target of series [11] is T1, Lutropin-choriogonadotropic hormone receptor. Put plainly: Negative allosteric modulation of human luteinizing hormone receptor assessed as reduction in Org 43553-induced agonist activity preincubated for 20 mins followed by 16 times EC80 of agonist addition and measured after 60 mins by cell based TR-FRET assay relative to control.
The target is the same in series [12]. Put plainly: Negative allosteric modulation of human luteinizing hormone receptor assessed as Emax for Org 43553-induced agonist activity at 0.84 nM to 17 uM preincubated for 20 mins followed by 100 times EC80 of agonist addition and measured after 60 mins by cell based TR-FRET assay relative to control.
For series [13] the target is unchanged. Briefly: Negative allosteric modulation of human luteinizing hormone receptor assessed as Emax for glycoprotein human luteinizing hormone-induced agonist activity at 0.84 nM to 17 uM preincubated for 20 mins followed by 16 times EC80 of agonist addition and measured after 60 mins by cell based TR-FRET assay relative to control. Conditions: at 0.00084 to 17 µM.

For series [14], the system named is Rattus norvegicus. Briefly: Downregulation of human luteinizing hormone-induced Egr-1 mRNA expression in cetrorelix-treated iv dosed female rat after 2 hrs by Taqman probe based RT-PCR analysis. In kind it is functional, organism-based.
The test system of series [15] is Rattus norvegicus. Put plainly: Effect on folliculo-genesis in 4 day cycle of po dosed normally cycling female rat assessed as induction of cycle arrest in metestrus stage by observing vaginal smears administered once daily for 8 days and measured for 2 cycle-stage. In kind it is functional, organism-based.
Series [16] addresses T1, Lutropin-choriogonadotropic hormone receptor. Briefly: Negative allosteric modulation of human luteinizing hormone receptor assessed as reduction in glycoprotein human luteinizing hormone-induced agonist activity preincubated for 20 mins followed by 100 times EC80 of agonist addition and measured after 60 mins by cell based TR-FRET assay relative to control.
Series [17] shares this target. Briefly: Negative allosteric modulation of human luteinizing hormone receptor assessed as reduction in glycoprotein human luteinizing hormone-induced agonist activity preincubated for 20 mins followed by 10 times EC80 of agonist addition and measured after 60 mins by cell based TR-FRET assay relative to control.
The subject of series [18] is Rattus norvegicus. Put plainly: Downregulation of human luteinizing hormone-induced progesterone expression in plasma of cetrorelix-treated female rat at 14 mg/kg, iv after 2 hrs by radioimmunoassay method (reference value: 243 nM). In kind it is functional.
Series [19] addresses T1, Lutropin-choriogonadotropic hormone receptor. Briefly: Negative allosteric modulation of human luteinizing hormone receptor assessed as Emax for Org 43553-induced agonist activity at 0.84 nM to 17 uM preincubated for 20 mins followed by 1 times EC80 of agonist addition and measured after 60 mins by cell based TR-FRET assay relative to control.
Series [20] has the same target. Put plainly: Negative allosteric modulation of human luteinizing hormone receptor assessed as Emax for glycoprotein human luteinizing hormone-induced agonist activity at 0.84 nM to 17 uM preincubated for 20 mins followed by 100 times EC80 of agonist addition and measured after 60 mins by cell based TR-FRET assay relative to control.
Series [21] shares this target. Briefly: Negative allosteric modulation of human luteinizing hormone receptor assessed as reduction in Org 43553-induced agonist activity preincubated for 20 mins followed by 1 times EC80 of agonist addition and measured after 60 mins by cell based TR-FRET assay relative to control.
Series [22] shares this target. Put plainly: Negative allosteric modulation of human luteinizing hormone receptor assessed as Emax for Org 43553-induced agonist activity at 0.84 nM to 17 uM preincubated for 20 mins followed by 10 times EC80 of agonist addition and measured after 60 mins by cell based TR-FRET assay relative to control.
Series [23] concerns the target Luteinizing hormone/choriogondaotropin receptor (Macaca fascicularis, UniProt F5A8F7). Briefly: Antagonist activity at cynomolgus monkey luteinizing hormone receptor expressed in HEK293 cells assessed as reduction in agonist-induced cAMP production preincubated for 30 mins followed by agonist solution addition and measured after 30 mins by cell based TR-FRET assay.

pIC50: −log10 of the molar value.

Chain of Luteinizing hormone/choriogondaotropin receptor (F5A8F7 whole entry): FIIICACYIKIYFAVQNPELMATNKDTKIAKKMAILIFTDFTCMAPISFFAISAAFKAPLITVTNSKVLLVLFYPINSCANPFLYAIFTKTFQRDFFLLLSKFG

For the compound `O=C(Nc1ccc(Oc2ccc(F)cc2)cc1)N1CCc2ncccc2[C@@H]1c1ccc(Cl)cc1`, the pIC50 is 5.82 in [1]; 5.82 in series [2]; 5.92 in series [5]; 5.77 in [11]; 5.60 in series [16]; 5.66 in series [17]. Moreover, the negative-log IC50 (pIC50) in series [21] was 6.19; in [23] it was 7.11. Moreover, the Emax turned out to be 102% in [3]; 93% in series [12]; 109% in [13]; 104% in series [19]; 98% in [20]; 102% in series [22]. The Activity in the series on Rattus norvegicus [4] was 2.5 nM; in the series on Rattus norvegicus [6], “Dose-dependent effect”; in the series with Rattus norvegicus [9], 12.6 nM; in the series on Rattus norvegicus [10] it was “Dose-dependent effect”; in the series with Rattus norvegicus [14], “Dose-dependent effect”; in the series with Rattus norvegicus [15], “Dose-dependent effect”. The compound further showed an Activity in the series with Rattus norvegicus [18] of 51 nM. The compound also gave a fraction unbound at 192 h in series [7] of 0.0024. Further, the concentration at 192 h in [8] fell in the range of 4 to 39 µM.
